From US10227357B2, “Compounds and methods for kinase modulation, and indications therefor” (Plexxikon Inc., priority 2012, dated 2019) come the findings set out here.

Molecules are shown by their SMILES.

The target in one experiment is T1, c-kit kinase (Homo sapiens, UniProt P10721).
T1 construct: The c-kit (or kinase domain thereof) is an active kinase in AlphaScreen; poly-Histidine tag (in-house protein only) (cleaved yes); host or cells: E. coli BL21(DE3)RIL, co-expressed with PTP1B
Nature of the experiment: c-Kit biochemical assay, AlphaScreen, 10 μM ATP. The note with it: c-kit biochemical inhibitory activity; read-out: Biochemical activity (IC50 μM) Kit. The method, boiled down: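 His-tagged c-Kit expressed in E. coli with co-expressed PTP1B (dephosphorylated), tag removed; 0.1 ng per reaction with biotinylated-peptide substrate in 50 mM HEPES pH 7.2, 5 mM MgCl2, 5 mM MnCl2, 5% DMSO, 10 μM ATP, 1 h at room temperature. Phosphorylation detected by AlphaScreen (streptavidin donor, PY20 acceptor beads); IC50 from 8-point 1:3 dilution series.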
(In general: Alpha assays give light when donor and acceptor beads are brought close together.)

In another experiment the target is T2, c-kit mutant D816V (Homo sapiens, UniProt P10721, D816V/DEL694-753).
T2 construct: residues 551-934, kinase insertion domain residues 694-753 deleted; 6x-histidine (N); made in house; host or cells: E. coli Arctic Express (DE3) RIL (Stratagene)
Briefly: c-Kit mutant D816V biochemical assay, AlphaScreen. The note with it: c-kit D816V biochemical inhibitory activity; read-out: Biochemical activity (IC50 μM) Kit D816V. The method, boiled down:
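Eight-point, threefold compound series incubated 30 min at room temperature with E. coli-produced D816V kinase, 10 μM ATP, Mg2+/Mn2+ HEPES buffer pH 7.2 and 5% DMSO. After EDTA stop, streptavidin and anti-phosphotyrosine (PY20) AlphaScreen beads gave the read-out, and IC50 was fitted from the concentration–signal curve.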

T2 sequence (P10721 with tags, fused parts or gaps DEL694-753/D816V): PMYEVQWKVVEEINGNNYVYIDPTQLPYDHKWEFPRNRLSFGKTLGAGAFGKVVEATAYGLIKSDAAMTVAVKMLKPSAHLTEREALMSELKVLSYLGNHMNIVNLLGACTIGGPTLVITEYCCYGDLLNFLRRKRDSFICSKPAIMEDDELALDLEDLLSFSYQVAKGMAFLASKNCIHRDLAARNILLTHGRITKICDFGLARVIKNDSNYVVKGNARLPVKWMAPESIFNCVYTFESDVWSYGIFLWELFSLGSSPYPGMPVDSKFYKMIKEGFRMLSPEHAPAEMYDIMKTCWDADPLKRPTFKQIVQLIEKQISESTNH
T1 sequence (P10721 26-976): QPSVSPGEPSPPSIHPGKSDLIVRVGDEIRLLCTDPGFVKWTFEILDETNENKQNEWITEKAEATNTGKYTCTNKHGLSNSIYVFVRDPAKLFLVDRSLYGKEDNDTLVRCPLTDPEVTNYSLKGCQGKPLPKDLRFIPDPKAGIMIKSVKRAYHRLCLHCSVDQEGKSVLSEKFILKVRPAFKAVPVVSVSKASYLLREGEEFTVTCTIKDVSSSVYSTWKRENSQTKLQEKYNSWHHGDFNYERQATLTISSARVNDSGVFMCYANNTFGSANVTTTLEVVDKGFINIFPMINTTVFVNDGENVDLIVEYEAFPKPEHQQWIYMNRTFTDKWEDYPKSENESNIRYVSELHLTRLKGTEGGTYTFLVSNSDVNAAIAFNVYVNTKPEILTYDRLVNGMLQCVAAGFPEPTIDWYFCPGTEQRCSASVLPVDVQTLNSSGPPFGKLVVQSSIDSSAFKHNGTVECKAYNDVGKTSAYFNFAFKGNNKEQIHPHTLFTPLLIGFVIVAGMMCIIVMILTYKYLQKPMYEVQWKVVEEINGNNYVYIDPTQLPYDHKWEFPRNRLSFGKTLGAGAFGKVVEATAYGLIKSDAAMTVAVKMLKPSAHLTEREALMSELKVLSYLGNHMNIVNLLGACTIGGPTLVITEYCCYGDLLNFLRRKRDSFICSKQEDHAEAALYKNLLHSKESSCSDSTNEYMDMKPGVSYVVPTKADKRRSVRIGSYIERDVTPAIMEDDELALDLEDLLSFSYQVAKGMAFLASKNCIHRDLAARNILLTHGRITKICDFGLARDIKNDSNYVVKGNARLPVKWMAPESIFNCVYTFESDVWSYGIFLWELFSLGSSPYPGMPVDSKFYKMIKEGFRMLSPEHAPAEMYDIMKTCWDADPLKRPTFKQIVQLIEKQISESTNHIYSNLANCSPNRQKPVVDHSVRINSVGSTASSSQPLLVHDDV

In general, IC50 refers to the midpoint of a concentration-inhibition curve. On to `Cc1ccc(S(=O)(=O)Nc2ccc(-c3ncnc4[nH]c(-c5ccc(F)cc5)cc34)cc2)cc1` [P-0433, N-[4-[6-(4-fluorophenyl)-7H-pyrrolo[2,3-d]pyrimidin-4-yl]phenyl]-4-methyl-benzenesulfonamide], for which the IC50 on c-kit kinase and at c-kit mutant D816V was 0.0001 to 1 µM throughout.
As to `CCCS(=O)(=O)Nc1cccc(-c2ncnc3[nH]c(-c4ccc(F)cc4)cc23)c1` [P-0434, N-[3-[6-(4-fluorophenyl)-7H-pyrrolo[2,3-d]pyrimidin-4-yl]phenyl]propane-1-sulfonamide], the IC50 lay within 1 to 10 µM on c-kit kinase and 10 to 200 µM on c-kit mutant D816V.
Turning to `Cc1n[nH]c2ncnc(-c3ccc(NS(=O)(=O)c4ccc(C(F)(F)F)cc4)cc3)c12` [P-0438, N-[4-(3-methyl-1H-pyrazolo[3,4-d]pyrimidin-4-yl)phenyl]-4-(trifluoromethyl)benzenesulfonamide], the IC50 on c-kit kinase fell in the range of 1 to 10 µM; on c-kit mutant D816V it was 0.0001 to 1 µM.
For `Cc1n[nH]c2ncnc(-c3ccc(NS(=O)(=O)c4ccc(F)cc4)cc3)c12` [P-0439, 4-fluoro-N-[4-(3-methyl-1H-pyrazolo[3,4-d]pyrimidin-4-yl)phenyl]benzenesulfonamide] the same measures were 1 to 10 µM and 0.0001 to 1 µM.
For `Cc1n[nH]c2ncnc(-c3ccc(NS(=O)(=O)c4cccc(F)c4)cc3)c12` [P-0440, 3-fluoro-N-[4-(3-methyl-1H-pyrazolo[3,4-d]pyrimidin-4-yl)phenyl]benzenesulfonamide], the half-inhibitory concentration (IC50) at c-kit kinase fell in the range of 1 to 10 µM; on c-kit mutant D816V it was 0.0001 to 1 µM.
In the case of `Cc1n[nH]c2ncnc(-c3ccc(NS(=O)(=O)c4ccc(C(F)(F)F)nc4)cc3)c12` [P-0441, N-[4-(3-methyl-1H-pyrazolo[3,4-d]pyrimidin-4-yl)phenyl]-6-(trifluoromethyl)pyridine-3-sulfonamide], the concentration for half-maximal inhibition (IC50) fell in the range of 10 to 200 µM at c-kit kinase and 0.0001 to 1 µM on c-kit mutant D816V.
For the compound `CCc1ccc(S(=O)(=O)Nc2ccc(-c3ncnc4[nH]nc(C)c34)cc2)cc1` [P-0442, 4-ethyl-N-[4-(3-methyl-1H-pyrazolo[3,4-d]pyrimidin-4-yl)phenyl]benzenesulfonamide], the IC50 at c-kit kinase fell in the range of 1 to 10 µM; on c-kit mutant D816V, 0.0001 to 1 µM.
As for `Cc1n[nH]c2ncnc(-c3ccc(NS(=O)(=O)c4cccc(Cl)c4)cc3)c12` [P-0443, 3-chloro-N-[4-(3-methyl-1H-pyrazolo[3,4-d]pyrimidin-4-yl)phenyl]benzenesulfonamide], the IC50 fell in the range of 1 to 10 µM at c-kit kinase and 0.0001 to 1 µM on c-kit mutant D816V.
In the same order, the values of `COc1ccc(S(=O)(=O)Nc2ccc(-c3ncnc4[nH]nc(C)c34)cc2)cc1` [P-0444, 4-methoxy-N-[4-(3-methyl-1H-pyrazolo[3,4-d]pyrimidin-4-yl)phenyl]benzenesulfonamide] are 1 to 10 µM and 0.0001 to 1 µM.
For `Cc1n[nH]c2ncnc(-c3ccc(NS(=O)(=O)c4ccc(Cl)cc4)cc3)c12` [P-0445, 4-chloro-N-[4-(3-methyl-1H-pyrazolo[3,4-d]pyrimidin-4-yl)phenyl]benzenesulfonamide] the same measures were 1 to 10 µM and 0.0001 to 1 µM.
With `Cc1ccc(S(=O)(=O)Nc2ccc(-c3ncnc4[nH]nc(C)c34)cc2)cc1` [P-0447, 4-methyl-N-[4-(3-methyl-1H-pyrazolo[3,4-d]pyrimidin-4-yl)phenyl]benzenesulfonamide], the IC50 is 1 to 10 µM on c-kit kinase and 0.0001 to 1 µM on c-kit mutant D816V.
Take `Cc1ccc(S(=O)(=O)Nc2ccc(-c3ncnc4[nH]cc(C)c34)cc2)cc1` [P-0448, 4-methyl-N-[4-(5-methyl-7H-pyrrolo[2,3-d]pyrimidin-4-yl)phenyl]benzenesulfonamide]: the IC50 on c-kit kinase was in the range of 1 to 10 µM; at c-kit mutant D816V, 0.0001 to 1 µM.
For `Cc1ccc(S(=O)(=O)Nc2ccc(-c3ncnc4[nH]c(C)c(C)c34)cc2)cc1` [P-0449, N-[4-(5,6-dimethyl-7H-pyrrolo[2,3-d]pyrimidin-4-yl)phenyl]-4-methyl-benzenesulfonamide] the same measures were 1 to 10 µM and 1 to 10 µM.
In the same order, the values of `Cc1ccc(S(=O)(=O)Nc2ccc(-c3ncnc4[nH]c(C)nc34)cc2)cc1` [P-0450, 4-methyl-N-[4-(8-methyl-9H-purin-6-yl)phenyl]benzenesulfonamide] are 10 to 200 µM and 1 to 10 µM.
In the same order, the values of `Cc1ccc(S(=O)(=O)NC2CCN(c3ncnc4[nH]c(-c5cnn(C)c5)cc34)CC2)cc1` [P-0451, 4-methyl-N-[1-[6-(1-methylpyrazol-4-yl)-7H-pyrrolo[2,3-d]pyrimidin-4-yl]-4-piperidyl]benzenesulfonamide] are 1 to 10 µM and 0.0001 to 1 µM.
As to `Cn1cc(-c2cc3c(N4CCC(NS(=O)(=O)c5ccc6c(c5)CCC6)CC4)ncnc3[nH]2)cn1` [P-0452, N-[1-[6-(1-methylpyrazol-4-yl)-7H-pyrrolo[2,3-d]pyrimidin-4-yl]-4-piperidyl]indane-5-sulfonamide], the values for the IC50 at c-kit kinase and on c-kit mutant D816V were 1 to 10 µM and 0.0001 to 1 µM, respectively.
For `Cc1ccc(S(=O)(=O)NC2CCN(c3ncnc4[nH]c(-c5cnn(C)c5)cc34)CC2)s1` [P-0454, 5-methyl-N-[1-[6-(1-methylpyrazol-4-yl)-7H-pyrrolo[2,3-d]pyrimidin-4-yl]-4-piperidyl]thiophene-2-sulfonamide] the same measures were 10 to 200 µM and 0.0001 to 1 µM.
In the same order, the values of `Cc1ccc2sc(S(=O)(=O)NC3CCN(c4ncnc5[nH]c(-c6cnn(C)c6)cc45)CC3)cc2c1` [P-0455, 5-methyl-N-[1-[6-(1-methylpyrazol-4-yl)-7H-pyrrolo[2,3-d]pyrimidin-4-yl]-4-piperidyl]benzothiophene-2-sulfonamide] are 1 to 10 µM and 0.0001 to 1 µM.
For `Cn1cc(-c2cc3c(N4CCC(NS(=O)(=O)c5ccc6c(c5)CCO6)CC4)ncnc3[nH]2)cn1` [P-0457, N-[1-[6-(1-methylpyrazol-4-yl)-7H-pyrrolo[2,3-d]pyrimidin-4-yl]-4-piperidyl]-2,3-dihydrobenzofuran-5-sulfonamide] the same measures were 10 to 200 µM and 0.0001 to 1 µM.
Regarding `Cn1cc(-c2cc3c(N4CCC(NS(=O)(=O)c5ccc(Cl)s5)CC4)ncnc3[nH]2)cn1` [P-0458, 5-chloro-N-[1-[6-(1-methylpyrazol-4-yl)-7H-pyrrolo[2,3-d]pyrimidin-4-yl]-4-piperidyl]thiophene-2-sulfonamide], the IC50 on c-kit kinase is 10 to 200 µM; on c-kit mutant D816V it was 0.0001 to 1 µM.
With `COc1cc(-c2cc3c(N4CCC(NS(=O)(=O)c5ccc(OC(F)(F)F)cc5)CC4)ncnc3[nH]2)ccn1` [P-0460, N-[1-[6-(2-methoxy-4-pyridyl)-7H-pyrrolo[2,3-d]pyrimidin-4-yl]-4-piperidyl]-4-(trifluoromethoxy)benzenesulfonamide], the IC50 at c-kit kinase and on c-kit mutant D816V was 10 to 200 µM throughout.
For the compound `Cn1cc(-c2cc3c(N4CCC(NS(=O)(=O)c5cc(Cl)c(Cl)s5)CC4)ncnc3[nH]2)cn1` [P-0461, 4,5-dichloro-N-[1-[6-(1-methylpyrazol-4-yl)-7H-pyrrolo[2,3-d]pyrimidin-4-yl]-4-piperidyl]thiophene-2-sulfonamide], the half-inhibitory concentration (IC50) at c-kit kinase is 1 to 10 µM; at c-kit mutant D816V, 0.0001 to 1 µM.
For the compound `Cn1cc(-c2cc3c(N4CCC(NS(=O)(=O)c5cc(Cl)cs5)CC4)ncnc3[nH]2)cn1` [P-0462, 4-chloro-N-[1-[6-(1-methylpyrazol-4-yl)-7H-pyrrolo[2,3-d]pyrimidin-4-yl]-4-piperidyl]thiophene-2-sulfonamide], the values for the concentration for half-maximal inhibition (IC50) at c-kit kinase and on c-kit mutant D816V were 1 to 10 µM and 0.0001 to 1 µM, respectively.
Consider `COc1ncc(-c2cc3c(N4CCC(NS(=O)(=O)c5ccc(OC(F)(F)F)cc5)CC4)ncnc3[nH]2)cn1` [P-0465, N-[1-[6-(2-methoxypyrimidin-5-yl)-7H-pyrrolo[2,3-d]pyrimidin-4-yl]-4-piperidyl]-4-(trifluoromethoxy)benzenesulfonamide], for which the concentration for half-maximal inhibition (IC50) on c-kit kinase and at c-kit mutant D816V was 10 to 200 µM throughout.
Take `Cn1cc(-c2cc3c(N4CCC(NS(=O)(=O)c5cc6ccccc6s5)CC4)ncnc3[nH]2)cn1` [P-0470, N-[1-[6-(1-methylpyrazol-4-yl)-7H-pyrrolo[2,3-d]pyrimidin-4-yl]-4-piperidyl]benzothiophene-2-sulfonamide]: the IC50 at c-kit kinase and on c-kit mutant D816V was 0.0001 to 1 µM throughout.
As for `Cn1cc(-c2cc3c(N4CCC(NS(=O)(=O)c5ccc(C6(C#N)CC6)cc5)CC4)ncnc3[nH]2)cn1` [P-0486, 4-(1-cyanocyclopropyl)-N-[1-[6-(1-methylpyrazol-4-yl)-7H-pyrrolo[2,3-d]pyrimidin-4-yl]-4-piperidyl]benzenesulfonamide], the 50% inhibitory concentration (IC50) at c-kit kinase and on c-kit mutant D816V was 1 to 10 µM in each case.
`CC(C)Oc1ccc(S(=O)(=O)NC2CCN(c3ncnc4[nH]c(-c5cnn(C)c5)cc34)CC2)cc1` [P-0488, 4-isopropoxy-N-[1-[6-(1-methylpyrazol-4-yl)-7H-pyrrolo[2,3-d]pyrimidin-4-yl]-4-piperidyl]benzenesulfonamide]: the IC50 at c-kit kinase and at c-kit mutant D816V was 0.0001 to 1 µM each time.
In the case of `Cn1cc(-c2cc3c(N4CCC(NS(=O)(=O)c5ccc(Cl)cc5)CC4)ncnc3[nH]2)cn1` [P-0491, 4-chloro-N-[1-[6-(1-methylpyrazol-4-yl)-7H-pyrrolo[2,3-d]pyrimidin-4-yl]-4-piperidyl]benzenesulfonamide], the figures for the IC50 on c-kit kinase and on c-kit mutant D816V were 1 to 10 µM and 0.0001 to 1 µM, respectively.
